Measurements taken from US20060115538A1, “Calcium lactate and whey permeate for lowering the triglyceride level” (priority 2002, published 2006).

Columns and labels:
Format in all cases: in vivo
WOK.W rat [1] = experiment: Feeding trial in male WOK.W rats: plasma glucose; conditions: 16 weeks old, after 12 weeks supplementation via drinking water, mean ± SEM, pathological threshold >8.4 mmol/l
Excerpt: (§1) Both pharmacological and nutrition-induced intervention trials on patients with an increased triglyceride level are above all time consuming, in order to detect changes of the metabolism, and require a high degree of discipline and motivation of the test persons or patients taking part in the studies. In part, these disadvantages can be lessened or eliminated by animal experiments, under the precondition that equivalent animal models are available. […] The specific properties of WOK.W rats are described, e.g., in: • P. Kovacs et al., Ann. N.Y. Acad. Sci., 1997, 827, 94-99; • P. Kovacs et al., Biochem. Biophsy. Res. Commun., 2000, 660-665; • J. van den Brandt et al., Int. J. Obesity, 2000, 24, 1618-1622; • J. van den Brandt et al., Metabolism 49, 2000, 1140-1144. […]
(§2) Body weight, body length (for the calculation of the mody mass index, BMI), plasma glucose, and serum triglycerides were recorded every 2 weeks. […]
(§3) Plasma glucose was measured enzymatically using a glucose analyzer. Lipid metabolism parameters were determined enzymatically with an automated analyzer for clinical chemistry, with kits (Boehringer Mannheim: triglycerides with TG GPO-PAP), according to the supplied instruction manuals. […]
(§4) The results are represented as mean values ±SEM and the statistical significance was calculated using Student's t-test.

WOK.W rat [2] = experiment: Feeding trial in male WOK.W rats: serum triglycerides; conditions: 16 weeks old, after 12 weeks supplementation via drinking water, mean ± SEM, pathological threshold >2.3 mmol/l, a: P < 0.01
Excerpt: as §1, §2, §3, §4

WOK.W rat [3] = experiment: Feeding trial in male WOK.W rats: body mass, BMI, pararenal adipose tissue; conditions: 16 weeks old, after 12 weeks supplementation via drinking water, mean ± SEM
Excerpt: Both pharmacological and nutrition-induced intervention trials on patients with an increased triglyceride level are above all time consuming, in order to detect changes of the metabolism, and require a high degree of discipline and motivation of the test persons or patients taking part in the studies. In part, these disadvantages can be lessened or eliminated by animal experiments, under the precondition that equivalent animal models are available. […] The specific properties of WOK.W rats are described, e.g., in: • P. Kovacs et al., Ann. N.Y. Acad. Sci., 1997, 827, 94-99; • P. Kovacs et al., Biochem. Biophsy. Res. Commun., 2000, 660-665; • J. van den Brandt et al., Int. J. Obesity, 2000, 24, 1618-1622; • J. van den Brandt et al., Metabolism 49, 2000, 1140-1144.
31 male WOK.W rats (from 8 litters) were divided, at an age of 4 weeks, into 4 groups, such that one sibling was represented in each group. Group 1 (n=8 animals) was fed and watered ad libitum and served as an untreated control group. Group 2 (n=7 animals) received drinking water to which had been added whey permeate (25 g sweet whey permeate/1000 ml drinking water), a daily water requirement of 20 ml on average being assumed as the basis of the calculation. Group 3 (n=8 animals) received drinking water to which had been added calcium L-lactate (5,6 g calcium L-lactate/1000 ml drinking water), and group 4 (n=8 animals) received whey permeate and calcium L-lactate in identical concentrations. The treatment trial began at an age of 4 weeks, i.e. before the development of the most important symptoms of the metabolic syndrome, and continued for 12 weeks, until an age of 16 weeks.
as §2, §4

For `C[C@H](O)C(=O)[O-].C[C@H](O)C(=O)[O-].[Ca+2]` [Calcium lactate, calcium L-lactate], the Blood sugar (WOK.W rat [1]) was 6.10 ± 0.21 mmol/L, the Triglyceride (WOK.W rat [2]) was 3.88 ± 0.22 mmol/L and the BMI (WOK.W rat [3]) was 0.77 ± 0.01 g/cm^2. It also gave a Body mass (WOK.W rat [3]) of 394.3 ± 10.6 G and an Adipose tissue (WOK.W rat [3]; pararenal adipose tissue) of 10.01 ± 0.71 G.
